Tests used:
[1] = test system: Per2::Luc U2OS cells; assay: Per2::Luc cell based circadian assay; conditions: for circadian period length: Per2::Luc U2OS cells, dose response
Procedure: U2OS cells stably transfected with a Per2::Luc reporter were cultured in DMEM supplemented with 10% FBS. For siRNA- and drug-based experiments, cells were seeded at 5,000 per well into white 384 well plates and transfected with 20 nM siRNA the next day. 2 days later, the cells were synchronized with 100 nM dexamethasone and the medium was replaced with phenol-red free DMEM supplemented with B-27 and 100 µM luciferin potassium salt, requisite drugs formulated in DMSO as a 1000× stock was added, and then sealed. Per2::Luc rhythms were recorded from a BMG Labtech Fluostar Omega plate reader maintained at 36° C. and readings taken from each well every hour. Data were then analysed using either Multicycle or Brass rhythm analysis software.
Period2::Luciferase (Per2::Luc) stable U2OS transfects were cultured, as described above. A Greiner Bio-One 384 Well Plate (Polystyrene, F-bottom), was then seeded at 6000 cells per 50 μl well. Following a 24 hour period, the cells were treated with 0.1% dexamethasone, a glucocorticoid hormone analogue known to reset intracellular circadian rhythms, for 1 hour. Subsequently, the dexamethasone-containing medium was removed, the cells were washed with PBS and luciferin and test drug containing medium was added. The cells were then assayed for luminescence over a period of 96 hours in the BMG FLUOstar OPTIMA Microplate Reader to observe the periodicity and amplitude of the luminescence values.

[2] = test system: STAR-PROM plasmid library; assay: STAR-PROM transcription factor screening in U2OS cells; assay type: cell-based; conditions: siFos
Procedure: This was conducted as previously reported in Gerber et al., Cell. […] Briefly, U2OS cells were cultured in 6-well plates and transfected with 1 ug of the STAR-PROM plasmid library (library structure as in above reference). RNA was extracted at set time points and sequenced for the barcoded luciferase constructs and analysed with Galaxy (https://use.galaxy.org).

[3] = test system: Per1/2; assay: Sleep deprivation, Per1/2 expression within the SCN; assay type: in vivo; conditions: sleep deprivation decreases Per1/2 expression
[4] = test system: CRE::Luc reporter; assay: CRE-Luc luciferase assay in U2OS cells; assay type: cell-based
Procedure: At 60-80% confluence and >90% viability, the U2OS cells in the T-75 flask were washed twice with 6 ml phosphate-buffered saline (PBS) and subsequently treated with 4 ml of TrypLE™ Express trypsin replacement solution for 10 minutes. A Greiner Bio-One 96 Well Plate (white, TC treated), was then seeded at 8000 cells per well. Following 24 hours, the cells were transfected at 50-70% confluency with CRE-luc Vector generated in-house with Viafect transfection reagent at 1:4 ratio (100 ng DNA/well) following manufacturers recommendations.
24 hours after transfection, the medium in the 96 well plate was changed to a serum-free medium with 1 mM luciferin. The cells were then incubated in serum starvation conditions for 6-8 hours, this was optimised to yield the greatest signal strength and lowest noise when assayed with forskolin control. Following the incubation period, the CRE-Luc U2OS cells were treated with the appropriate drug and their luminescence values were measured after 6 hours in the BMG FLUOstar OPTIMA Microplate Reader. […] Unless stated otherwise, forskolin was used as a positive control, and 1% DMSO was used as a negative control.

[5] = test system: Per2; assay: Per2 mRNA levels in U2OS cells by qPCR; assay type: cell-based; conditions: U2OS cells, qPCR, concentration not given
Procedure: (§1) Total RNA was extracted using the microRNeasy column method (Qiagen, Hilden, Germany). Quality and quantity of RNA were measured using an Agilent Bioanalyzer and a Nanodrop1000 (Thermo Fisher Scientific, Waltham, MA USA), respectively.
(§2) RNA samples were prepared as described for microarray hybridisation. cDNA was synthesized with a qScript cDNA synthesis kit (Quanta Biosciences, Gaithersburg, MD), and quantitative PCR (qPCR) was conducted with Sybr green I and an SDS7700 thermal cycler (Applied Biosystems, Foster City, CA). Relative quantification of transcript levels was done as described previously (Peirson et al., Nucleic Acids Res. 2003 Jul. 15; 31(14):e73.). The geometric mean of a minimum of three housekeeping genes was used for normalization (Gapdh, ActB, GusB and Rps9 for example).
(§3) Cells from the U2OS (HTB-96) line were obtained, tested and identified. The cells were cultured in T-75 flasks, in Dulbecco's modified Eagle medium (DMEM) supplemented with 10% foetal bovine serum (FBS) and 1% penicillin-streptomycin (P/S) at 37° C. in a humidified atmosphere at 5% CO2. The cells were subcultured every 2 to 4 days in a 1:2 to 1:6 ratio, in accordance with the ATCC recommendations. The cells were counted using a haemocytometer, and their viability in a culture was maintained at above 95%, measured with a Presto Blue exclusion assay according to the manufacturer's specifications. Cells were transfected with siRNAs (typically at 50 nM concentrations, sequences as previously listed), the CRE::Luc (pGL4.29[luc2P/CRE/Hygro] Vector, encoding Luc2P […] under the control of a strong cAMP response element (CRE) promoter containing 3 CRE elements within its sequence; Promega) reporter vector or cAMP-GLOSensor plasmid (Promega) as per manufacturer's instructions using either Lipofectamine RNAimax (Invitrogen) or Lipofectamine3000 (Invitrogen).

[6] = test system: C57Bl/6 mice; assay: Phase shifting of circadian activity in response to a light pulse with drug; assay type: in vivo; conditions: 1 mg/kg intraperitoneal before 30 min 400 lux light pulse at CT22
Procedure: Animals were maintained in a 12 h light (white) 12 h dark (grey) cycle and vehicle was administered just before a 30 min 400 lux light pulse (white bar) at time CT 22 (or 10 hours after lights off). All light cues were then removed to allow the animals free running clock to express. A gap in the lines on the day after the light pulse was administered indicates a phase shift.
Animals were maintained in a 12 h light (white) 12 h dark (grey) cycle and IB-MECA (1 mg/kg) was administered just before a 30 min 400 lux light pulse (white bar) at time CT 22 (or 10 hours after lights off).
Animals were housed under a reversed 12:12 LD cycle (400 lux from white LED lamps) with food and water ad libitum. For phase-shifting studies, C57Bl/6 mice were maintained on running wheels in light tight chambers on a 12:12 LD cycle (400 lux from white LED lamps) and injected with drug at the indicated time points. The drugs were formulated in a vehicle consisting of 5% Koliphor-HS15 (Sigma-Aldrich, UK) 5% Cyclodextran (Sigma-Aldrich, UK) in 0.9% saline. […] Where measuring phase-shifting, the mice were then placed in DD and allowed to free run for 14 days in DD, running wheel activity data was collected and analysed on Clocklab (Actimetrics, Wilmette, IL). […]

[7] = test system: C57Bl/6 mice; assay: Phase shifting of circadian activity by drug (running wheel); assay type: in vivo; conditions: administered at CT22, absence of a light pulse
Procedure: Animals were housed under a reversed 12:12 LD cycle (400 lux from white LED lamps) with food and water ad libitum. For phase-shifting studies, C57Bl/6 mice were maintained on running wheels in light tight chambers on a 12:12 LD cycle (400 lux from white LED lamps) and injected with drug at the indicated time points. The drugs were formulated in a vehicle consisting of 5% Koliphor-HS15 (Sigma-Aldrich, UK) 5% Cyclodextran (Sigma-Aldrich, UK) in 0.9% saline. This vehicle was warmed to 37° C. and the indicated drugs kept at a 100× stock in DMSO and mixed at the appropriate concentration to be administered at approximately 300 ul intraperitoneal injection (n=6 to 10). Where the time point of injection was in the dark, the procedure was conducted under dim red light. Where measuring phase-shifting, the mice were then placed in DD and allowed to free run for 14 days in DD, running wheel activity data was collected and analysed on Clocklab (Actimetrics, Wilmette, IL). For jet-lag studies, mice were maintained on running wheels in light tight chambers on a 12:12 LD cycle (400 lux from white LED lamps) and injected with drugs as above at ZT6 and the LD cycle was shifted 6 hours in advance. The onset of activity on each day was used to measure phase relative to the LD cycle.
Phase Shifting: C57Bl/6 male mice (80 days or older) were maintained on running wheels in light tight chambers on a 12:12 LD cycle (100 lux from white LED lamps) on stable entrainment, were released in complete darkness. At set times as indicated in the experiments, the animals received an intraperitoneal injection (300 ul) of drug constituted in sterile saline with 5% Cyclodextrin (Sigma-Aldrich) and 5% Koliphor (Sigma-Aldrich) and then allowed to free run in DD, running wheel activity data were collected and analysed on Clocklab (Actimetrics, Wilmette, IL).

[8] = test system: intracellular levels of cAMP; assay: cAMP GloSensor assay in U2OS cells; assay type: cell-based
Procedure: The GloSensor™ cAMP Assay (Promega) was used for detecting changes in the intracellular levels of cAMP. Initially, a Greiner Bio-One 96 Well Plate (white, TC treated) was seeded at 8000 cells per 100 μl well, as described above. After 24 hours, the cells were transfected with the pGloSensor™ cAMP Plasmid using the Viafect transfection reagent as above. Between 24 and 48 hours later, allowing for the accumulation of the biosensor, the medium in the 96 well plate was changed to C02-Independent Medium supplemented with GlutaMAX™ (Life Technologies), 10% fetal bovine serum and 2% GloSensor™ cAMP Reagent. The plate was then stood for 2 hours at room temperature to equilibrate. Following the incubation period, the cells were treated with relevant drugs and their luminescence values were measured after 20 minutes in the BMG FLUOstar OPTIMA Microplate Reader, with forskolin as a positive control, and DMSO as a negative control.

[9] = test system: Per1; assay: Per1 mRNA levels in U2OS cells by qPCR; assay type: cell-based; conditions: U2OS cells, qPCR, concentration not given
Procedure: as §1, §2, §3

[10] = test system: Per1/2; assay: Sleep deprivation, Per1/2 within the cortex; assay type: in vivo; conditions: data not shown

SMILES: Nc1nc2ccc(Cl)cc2c2nc(-c3ccco3)nn12 [CGS15943, 9-chloro-2-(furan-2-yl)-[1,2,4]triazolo[1,5-c]quinazolin-5-amine]
- period lengthening effect after knockdown of adenosine receptors ([1]; A1, A2A, A2B adenosine receptors in U2OS cells knocked down using siRNA): lost
- response of clone3 after siRNA-mediated silencing of Fos [2]: significantly reduced

SMILES: CCNC(=O)[C@H]1O[C@@H](n2cnc3c(N)nc(NCCc4ccc(CCC(=O)O)cc4)nc32)[C@H](O)[C@@H]1O.Cl [CGS21680, 3-[4-[2-[[6-amino-9-[(2R,3R,4S,5S)-5-(ethylcarbamoyl)-3,4-dihydroxy-oxolan-2-yl]purin-2-yl]amino]ethyl]phenyl]propanoic acid]
- Per1/2 expression within the SCN [3]: increased Per1/2 expression

SMILES: CNC(=O)[C@H]1O[C@@H](n2cnc3c(NCc4cccc(I)c4)ncnc32)[C@H](O)[C@@H]1O [IB-MECA, 1-Deoxy-1-[6-[((3-Iodophenyl)methyl)amino]-9H-purin-9-yl]-N-methyl-β-D-ribofuranuronamide]
- CREB-driven transcription (CRE::Luc reporter) [4]: activation
- Per2 mRNA levels / expression [5]: elevated
- phase advance induced by light pulse [6]: phase advance was lost
- phase shift of circadian activity [7]: elicited a phase delay
- circadian period length [1]: dose-dependent period length increases
- amplitude of the cellular clock ([1]; Per2::Luciferase construct, U2OS cells): increases in period and amplitude
- cAMP levels [8]: concurrent increase
- Per1 mRNA levels / expression [9]: elevated

SMILES: CCn1c(=O)c2c(nc(/C=C/c3ccc(OC)c(OC)c3)n2C)n(CC)c1=O [Istradefylline, 8-[(E)-2-(3,4-dimethoxyphenyl)vinyl]-1,3-diethyl-7-methyl-3,7-dihydro-1H-purine-2,6-dione]
- circadian period length [1]: increased circadian period length in a dose dependent manner

SMILES: O=C(Cc1ccccc1)Nc1nc2ccc(Cl)cc2c2nc(-c3ccco3)nn12 [MRS1220, 9-Chloro-2-(2-furanyl)-5-((phenylacetyl)amino)-[1,2,4]triazolo[1,5-c]quinazoline]
- circadian period length [1]: increased circadian period length in a dose dependent manner

SMILES: Nc1nc(NCCc2ccc(O)cc2)nc2nc(-c3ccco3)nn12 [ZM241385, 4-(2-(7-amino-2-(furan-2-yl)-[1,2,4]triazolo[1,5-a][1,3,5]triazin-5-ylamino)ethyl)phenol]
- circadian period length [1]: increased circadian period length in a dose dependent manner

SMILES: CC#C[C@]1(O)CC[C@H]2[C@@H]3CCC4=CC(=O)CCC4=C3[C@@H](c3ccc(N(C)C)cc3)C[C@@]21C [mifepristone]
- sleep deprivation-induced increase of Per1/2 within the cortex [10]: blunted this response

Reference: patent US11931374B2, “Adenosine receptor modulators for the treatment of circadian rhythm disorders” (OXFORD UNIVERSITY INNOVATION LIMITED, priority 2016, dated 2024)
